Laboratory results from PubChem BioAssay AID1963985 (Molecular Pharmacology Branch, DTP, NCI, 2024).
Values belong to the compound of their own block, whether it stands above or below them.

System: 252836-082-R-J2-PDC tumor spheroids, viability
Assay: Anticancer human tumor 252836-082-R-J2-PDC patient-derived head and neck squamous cell carcinoma cell line growth inhibition [PI3K]
Details: spheroids with HUVEC and MSC; for IC50: curve of first compound; for viability, T/C: stronger effect = lower value
In short: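 Stroma-containing spheroids: tumor line, pooled-donor HUVEC, hMSC. Treatments: targeted agents with PI3K inhibitors. Dosing: clinically relevant, half-log spacing, 10 microM ceiling without known Cmax. Read-out: cell viability.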

[1] = second compound 0.0316 µM, first compound 0.0316 µM
[2] = second compound 0.0316 µM, first compound 0.1 µM
[3] = second compound 0.0316 µM, first compound 0.316 µM
[4] = second compound 0.0316 µM, first compound 1 µM
[5] = second compound 0.0316 µM, first compound 3.16 µM
[6] = second compound 0.0316 µM, first compound 10 µM
[7] = second compound 0.1 µM, first compound 0.0316 µM
[8] = second compound 0.1 µM, first compound 0.1 µM
[9] = second compound 0.1 µM, first compound 0.316 µM
[10] = second compound 0.1 µM, first compound 1 µM
[11] = second compound 0.1 µM, first compound 3.16 µM
[12] = second compound 0.1 µM, first compound 10 µM
[13] = second compound 0.316 µM, first compound 0.0316 µM
[14] = second compound 0.316 µM, first compound 0.1 µM
[15] = second compound 0.316 µM, first compound 0.316 µM
[16] = second compound 0.316 µM, first compound 1 µM
[17] = second compound 0.316 µM, first compound 3.16 µM
[18] = second compound 0.316 µM, first compound 10 µM
[19] = second compound 1 µM, first compound 0.0316 µM
[20] = second compound 1 µM, first compound 0.1 µM
[21] = second compound 1 µM, first compound 0.316 µM
[22] = second compound 1 µM, first compound 1 µM
[23] = second compound 1 µM, first compound 3.16 µM
[24] = second compound 1 µM, first compound 10 µM
[25] = second compound 3.16 µM, first compound 0.0316 µM
[26] = second compound 3.16 µM, first compound 0.1 µM
[27] = second compound 3.16 µM, first compound 0.316 µM
[28] = second compound 3.16 µM, first compound 1 µM
[29] = second compound 3.16 µM, first compound 3.16 µM
[30] = second compound 3.16 µM, first compound 10 µM
[31] = second compound 10 µM, first compound 0.0316 µM
[32] = second compound 10 µM, first compound 0.1 µM
[33] = second compound 10 µM, first compound 0.316 µM
[34] = second compound 10 µM, first compound 1 µM
[35] = second compound 10 µM, first compound 3.16 µM
[36] = second compound 10 µM, first compound 10 µM
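Further: spheroids exposed to agents for seven days before readout.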
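Wherever viability, T/C is given: percent of vehicle DMSO control viability so 100% = untreated growth.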

IC50 (second compound 0.0316 µM): > 10000 nM | IC50 (second compound 0.1 µM): > 10000 nM | IC50 (second compound 0.316 µM): > 10000 nM | IC50 (second compound 1 µM): > 10000 nM | IC50 (second compound 3.16 µM): > 10000 nM | IC50 (second compound 10 µM): > 10000 nM
Compound: C=CC(=O)N1CCN(c2nc(=O)n(-c3c(C)ccnc3C(C)C)c3nc(-c4c(O)cccc4F)c(F)cc23)C(C)C1 (stereo not drawn) + CC(Nc1ncnc2nc[nH]c12)c1cc2cccc(Cl)c2c(=O)n1-c1ccccc1
viability, T/C [1]: 94.3% | viability, T/C [2]: 95.8% | viability, T/C [3]: 103% | viability, T/C [4]: 103% | viability, T/C [5]: 105% | viability, T/C [6]: 98% | viability, T/C [7]: 88.5% | viability, T/C [8]: 92.5% | viability, T/C [9]: 96.1% | viability, T/C [10]: 89.8% | viability, T/C [11]: 96.3% | viability, T/C [12]: 100% | viability, T/C [13]: 91% | viability, T/C [14]: 96.6% | viability, T/C [15]: 107% | viability, T/C [16]: 99.7% | viability, T/C [17]: 104% | viability, T/C [18]: 90.5% | viability, T/C [19]: 85.7% | viability, T/C [20]: 90.4% | viability, T/C [21]: 118% | viability, T/C [22]: 102% | viability, T/C [23]: 108% | viability, T/C [24]: 123% | viability, T/C [25]: 74.9% | viability, T/C [26]: 70.3% | viability, T/C [27]: 74.7% | viability, T/C [28]: 86.2% | viability, T/C [29]: 93.3% | viability, T/C [30]: 82.7% | viability, T/C [31]: 72.5% | viability, T/C [32]: 57.5% | viability, T/C [33]: 69.4% | viability, T/C [34]: 72.8% | viability, T/C [35]: 94.9% | viability, T/C [36]: 74.9%

IC50 (second compound 0.0316 µM): > 1000 nM | IC50 (second compound 0.1 µM): > 1000 nM | IC50 (second compound 0.316 µM): > 1000 nM | IC50 (second compound 1 µM): > 1000 nM | IC50 (second compound 3.16 µM): > 1000 nM | IC50 (second compound 10 µM): > 1000 nM
Compound: CCN1CCN(Cc2ccc(Nc3ncc(F)c(-c4cc(F)c5nc(C)n(C(C)C)c5c4)n3)nc2)CC1 + CC(Nc1ncnc2nc[nH]c12)c1cc2cccc(Cl)c2c(=O)n1-c1ccccc1
viability, T/C (second compound 0.0316 µM, first compound 0.00316 µM): 98.7% | viability, T/C (second compound 0.0316 µM, first compound 0.01 µM): 94.4% | viability, T/C [1]: 96.9% | viability, T/C [2]: 99% | viability, T/C [3]: 89.8% | viability, T/C [4]: 84.6% | viability, T/C (second compound 0.1 µM, first compound 0.00316 µM): 99.2% | viability, T/C (second compound 0.1 µM, first compound 0.01 µM): 93.1% | viability, T/C [7]: 103% | viability, T/C [8]: 108% | viability, T/C [9]: 95% | viability, T/C [10]: 99.6% | viability, T/C (second compound 0.316 µM, first compound 0.00316 µM): 103% | viability, T/C (second compound 0.316 µM, first compound 0.01 µM): 94.3% | viability, T/C [13]: 95.7% | viability, T/C [14]: 96.3% | viability, T/C [15]: 96.6% | viability, T/C [16]: 96.2% | viability, T/C (second compound 1 µM, first compound 0.00316 µM): 92.8% | viability, T/C (second compound 1 µM, first compound 0.01 µM): 93.6% | viability, T/C [19]: 91.9% | viability, T/C [20]: 90.6% | viability, T/C [21]: 89.2% | viability, T/C [22]: 91.6% | viability, T/C (second compound 3.16 µM, first compound 0.00316 µM): 80% | viability, T/C (second compound 3.16 µM, first compound 0.01 µM): 69.8% | viability, T/C [25]: 75.4% | viability, T/C [26]: 79% | viability, T/C [27]: 78.9% | viability, T/C [28]: 75% | viability, T/C (second compound 10 µM, first compound 0.00316 µM): 56% | viability, T/C (second compound 10 µM, first compound 0.01 µM): 62.8% | viability, T/C [31]: 65% | viability, T/C [32]: 67.4% | viability, T/C [33]: 69.8% | viability, T/C [34]: 53.6%

IC50 (second compound 0.0316 µM): 642 nM | IC50 (second compound 0.1 µM): 713 nM | IC50 (second compound 0.316 µM): 496 nM | IC50 (second compound 1 µM): 623 nM | IC50 (second compound 3.16 µM): 538 nM | IC50 (second compound 10 µM): 273 nM
Compound: Cn1ncc(Cl)c1-c1cc(C(=O)NC(CN)Cc2cccc(F)c2)sc1Cl (stereo not drawn) + CC(Nc1ncnc2nc[nH]c12)c1cc2cccc(Cl)c2c(=O)n1-c1ccccc1
viability, T/C [1]: 90.3% | viability, T/C [2]: 65% | viability, T/C [3]: 63.8% | viability, T/C [4]: 44.5% | viability, T/C [5]: 30% | viability, T/C [6]: 12.1% | viability, T/C [7]: 100% | viability, T/C [8]: 81% | viability, T/C [9]: 59.7% | viability, T/C [10]: 43.9% | viability, T/C [11]: 33% | viability, T/C [12]: 12.2% | viability, T/C [13]: 80.9% | viability, T/C [14]: 70.3% | viability, T/C [15]: 56.2% | viability, T/C [16]: 38.8% | viability, T/C [17]: 28.2% | viability, T/C [18]: 12% | viability, T/C [19]: 84% | viability, T/C [20]: 80.4% | viability, T/C [21]: 58.3% | viability, T/C [22]: 40.7% | viability, T/C [23]: 29.5% | viability, T/C [24]: 13% | viability, T/C [25]: 76.5% | viability, T/C [26]: 71.8% | viability, T/C [27]: 53.8% | viability, T/C [28]: 43.3% | viability, T/C [29]: 27.8% | viability, T/C [30]: 15.5% | viability, T/C [31]: 57% | viability, T/C [32]: 60.9% | viability, T/C [33]: 49.3% | viability, T/C [34]: 30.7% | viability, T/C [35]: 27% | viability, T/C [36]: 14.1%

IC50 (second compound 0.0316 µM): > 10000 nM | IC50 (second compound 0.1 µM): > 10000 nM | IC50 (second compound 0.316 µM): > 10000 nM | IC50 (second compound 1 µM): > 10000 nM | IC50 (second compound 3.16 µM): > 10000 nM | IC50 (second compound 10 µM): 6580 nM
Compound: Cn1nccc1Nc1nccc(-c2ccn(C(CO)c3ccc(Cl)c(F)c3)c(=O)c2)n1 (stereo not drawn) + CC(Nc1ncnc2nc[nH]c12)c1cc2cccc(Cl)c2c(=O)n1-c1ccccc1
viability, T/C [1]: 83.3% | viability, T/C [2]: 99.5% | viability, T/C [3]: 91.9% | viability, T/C [4]: 99.6% | viability, T/C [5]: 93.3% | viability, T/C [6]: 66.2% | viability, T/C [7]: 100% | viability, T/C [8]: 94.8% | viability, T/C [9]: 91.3% | viability, T/C [10]: 95.9% | viability, T/C [11]: 95.9% | viability, T/C [12]: 67.2% | viability, T/C [13]: 97.2% | viability, T/C [14]: 94.5% | viability, T/C [15]: 93.7% | viability, T/C [16]: 81.1% | viability, T/C [17]: 91.9% | viability, T/C [18]: 76% | viability, T/C [19]: 75.4% | viability, T/C [20]: 82.3% | viability, T/C [21]: 91.3% | viability, T/C [22]: 92.6% | viability, T/C [23]: 81.5% | viability, T/C [24]: 56.5% | viability, T/C [25]: 72.4% | viability, T/C [26]: 86.2% | viability, T/C [27]: 77.5% | viability, T/C [28]: 80.5% | viability, T/C [29]: 80.9% | viability, T/C [30]: 52.9% | viability, T/C [31]: 62% | viability, T/C [32]: 64.8% | viability, T/C [33]: 78.9% | viability, T/C [34]: 73.4% | viability, T/C [35]: 62.4% | viability, T/C [36]: 41.8%
